Assay [1] has as its target hSTING(REF) (Homo sapiens, UniProt Q86WV6). As to the kind of experiment: Differential scanning fluorometry (DSF) binding to purified hSTING REF allele. Set-up: DNA encoding amino acids 140-379 (amino acid numbering corresponding to Swiss Prot Q86WV6); 6xHIS (N, cleaved yes); SUMO (N, cleaved yes); made in house; host or cells: Rosetta2 (DE3) E. coli. The following applies: for hSTING Tm Shift REF: DSF, 1 mg/ml STING AA140-379, ligand 1 mM. Here is the method:
(§1) Cells were grown in lysogeny broth at 37° C. until a […] absorbance of 0.6 was reached. […] Cell pellets were re-suspended on ice in a buffer containing 50 mM Tris hydrochloride (Tris-HCl) pH 7.5, 500 mM sodium chloride (NaCl), 20 mM imidazole, 10% glycerol, 1 mM tris(2-carboxyethyl)phosphine hydrochloride (TCEP) and protease inhibitor tablet (Pierce) (Buffer A). Cells were lysed using an S-450D sonifier (Emmerson industrial) on ice. […] Protein was aliquoted, flash frozen in liquid nitrogen and stored at −80° C. until use.
(§2) The protein is heated in the presence of a dye that binds to and fluoresces in hydrophobic environments. The protein is thermally denatured by heating resulting in increased dye binding to the unfolded protein and fluorescence. The temperature midpoint (Tm) of a proteins denaturation is established by calculating the half maximal value of the denaturation curve. The temperature midpoint of the protein in the presence of a ligand is directly related to the affinity of the ligand for the protein and therefore its ability to stabilize the protein at higher temperatures.
(§3) Samples were placed in hard shell PCR plate (Bio-Rad). The fluorescence as a function of temperature was recorded in a CFX 96 real time PCR machine (Bio-Rad) reading on the HEX channel, excitation 450-490, emission 560-580 nm. The temperature gradient was from 15-80° C. ramping 0.5° C. per 15 seconds and recording every 0.5° C. After subtraction of the background signal from a sample lacking protein and ligand. The midpoint temperature (Tm) was calculated by fitting the curves of the fluorescence as a function of temperature to a Boltzmann sigmoidal function (Graph Pad Prism).
On the technique in general: Differential scanning fluorimetry follows unfolding on heating by fluorescence.

For assay [2], the target named is T1, hSTING HAQ allele (Homo sapiens, UniProt Q86WV6, G230A/H232R/R293Q/R71H).
T1 construct: a human monocyte cell line containing the hSTING HAQ allele; host or cells: THP1-Dual cells
As to the kind of experiment: IRF-3 inducible secreted luciferase reporter in THP1-Dual cells without digitonin. Type of assay: cell-based. The following applies: for pEC50: without digitonin in THP1 cells (HAQ allele); for activity relative to OH reference compound, in words: Table 5 comment, THP1 cells without digitonin. Here is the method: After 30 minutes, cells were washed and fresh RPMI media containing 10% FBS was added, and cells were incubated at 37° C. with 5% CO2 Cell culture supernatants from each sample were collected after overnight incubation, and 10 μL of the cell culture supernatants was added to 50 μL QUANTI-Luc reagent (Invivogen). Type I interferon activation was determined by measuring secreted luciferase levels on a SpectraMax M3 spectrophotometer (Molecular Devices). The EC50 value was determined from the dose-response curve for the 10 concentrations from the serial dilution of the reference compounds and compounds of the invention tested in this assay as listed in Table 5.
In general terms: Reporter assays use an easily measured gene product as a stand-in for the process of interest.

Assay [3] addresses hSTING(WT) (Homo sapiens, UniProt Q86WV6, H232R). Kind of assay: Differential scanning fluorometry (DSF) binding to purified hSTING WT. Also noted: DNA encoding amino acids 140-379 (amino acid numbering corresponding to Swiss Prot Q86WV6); 6xHIS (N, cleaved yes); SUMO (N, cleaved yes); made in house; host or cells: Rosetta2 (DE3) E. coli. Conditions: DSF, 1 mg/ml STING AA140-379, ligand 1 mM. Here is the method: as §1, §2, §3

Assay [4] addresses T2, HAQ allele hSTING (Homo sapiens, UniProt Q86WV6, G230A/H232R/R293Q).
T2 construct: DNA encoding amino acids 140-379 (amino acid numbering corresponding to Swiss Prot Q86WV6); 6xHIS (N, cleaved yes); SUMO (N, cleaved yes); made in house; host or cells: Rosetta2 (DE3) E. coli
As to the kind of experiment: Differential scanning fluorometry (DSF) binding to purified hSTING HAQ allele. The following applies: DSF, 1 mg/ml STING AA140-379, ligand 1 mM. The procedure: as §1, §2, §3

Assay [5] has as its target T3, human-STING(E149-S379)H232R protein (Homo sapiens, UniProt Q86WV6, H232R).
T3 construct: His6 (C); made in house; host or cells: E. coli
Kind of assay: Surface Plasmon Resonance binding to hSTING WT. Conditions: Biacore T200, 15° C., steady-state analysis. The procedure: Binding of the mono- and di-F CDN compounds was assessed using Surface Plasmon Resononce to determine a binding constant. An E. coli expression construct (human-STING[E149-S379]H232R) was prepared harboring the protein sequence:
Aliquots were prepared and stored at −80° C. in 30 mM Tris pH 7.5/100 mM NaCl/10% glycerol.
N-terminal avi-tagged human-STING(E149-S379)H232R protein was immobilized (2500 RUs) on a streptavidin chip at 15° C. in a Biacore T200 (GE Healthcare). Titrations of cyclic dinucleotides (CDNs as indicated in Table 6) in 30 mM Tris pH 7.5/50 mM NaCL/0.005% Tween 20/1 mM DTT/2% DMSO, were profiled (30 μLs/min, 180 seconds for sample contact/120 seconds for dissociation) against hSTING at 15° C. Kinetic analysis of the data was performed using Biacore T200 Evaluation software. Steady-state analysis of the data was performed using Graphpad Prism 6.0 software, using one site-specific binding algorithm (Equation is Y=Bmax*X/(Kd+X)).
On the technique in general: SPR reads the build-up and loss of mass on a sensor chip optically.

pEC50, pKd: −log10 of the molar value. Bounds are passed on as bounds.

One may read the pEC50 as the EC50 on a negative log10 scale, so that one unit is a factor of ten. A high value points to a low EC50. One may read the pKd as the Kd on a negative log10 scale, so that one unit is a factor of ten.

T1 sequence (Q86WV6 whole entry R71H/G230A/H232R/R293Q): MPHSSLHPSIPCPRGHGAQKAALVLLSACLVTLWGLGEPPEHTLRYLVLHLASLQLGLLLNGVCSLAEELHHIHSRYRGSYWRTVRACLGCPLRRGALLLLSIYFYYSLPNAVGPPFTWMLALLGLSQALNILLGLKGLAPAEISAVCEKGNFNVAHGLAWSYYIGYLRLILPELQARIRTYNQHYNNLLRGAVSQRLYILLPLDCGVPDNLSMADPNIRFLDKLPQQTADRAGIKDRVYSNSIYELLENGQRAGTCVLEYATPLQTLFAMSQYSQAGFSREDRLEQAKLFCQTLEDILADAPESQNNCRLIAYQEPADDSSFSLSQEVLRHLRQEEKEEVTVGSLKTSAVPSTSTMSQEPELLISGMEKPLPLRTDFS
T3 sequence (Q86WV6 with tags, fused parts or gaps H232R): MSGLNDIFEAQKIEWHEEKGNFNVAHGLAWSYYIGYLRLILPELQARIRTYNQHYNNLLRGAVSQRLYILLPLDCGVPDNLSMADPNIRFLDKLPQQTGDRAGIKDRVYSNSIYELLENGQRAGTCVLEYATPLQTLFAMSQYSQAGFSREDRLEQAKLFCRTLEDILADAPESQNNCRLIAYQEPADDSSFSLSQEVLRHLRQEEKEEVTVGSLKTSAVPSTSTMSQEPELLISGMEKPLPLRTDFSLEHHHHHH
Chain of hSTING(WT) (Q86WV6 140-379 H232R): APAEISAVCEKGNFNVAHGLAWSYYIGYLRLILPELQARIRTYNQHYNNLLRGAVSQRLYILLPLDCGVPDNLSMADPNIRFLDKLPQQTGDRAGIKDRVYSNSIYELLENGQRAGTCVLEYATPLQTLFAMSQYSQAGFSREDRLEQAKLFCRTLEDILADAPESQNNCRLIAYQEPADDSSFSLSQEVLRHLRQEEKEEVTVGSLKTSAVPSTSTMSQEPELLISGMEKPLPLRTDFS
T2 sequence (Q86WV6 140-379 G230A/H232R/R293Q limits assumed): as the sequence (Q86WV6 140-379 H232R) above, with G91A, R154Q counted along it
Chain of hSTING(REF) (Q86WV6 140-379): as the sequence (Q86WV6 140-379 H232R) above, with R93H counted along it

Take `Nc1nc2c(ncn2[C@@H]2O[C@@H]3CO[P@@](=O)(S)O[C@H]4[C@@H](O)[C@H](n5cnc6c(N)ncnc65)O[C@@H]4CO[P@](=O)(S)O[C@H]3[C@H]2F)c(=O)[nH]1` [Compound 23a, 2-amino-9-((2R,3R,3aR,5S,7aR,9R,10R,10aS,12R,14aR)-9-(6-amino-9H-purin-9-yl)-3-fluoro-10-hydroxy-5,12-dimercapto-5,12-dioxidooctahydro-2H,7H-difuro[3,2-d:3′,2′-j][1,3,7,9]tetraoxa[2,8]diphosphacyclododecin-2-yl)-1,9-dihydro-6H-purin-6-one]: in assay [1], the “hSTING Tm Shift REF” value is 7.8 °C. In addition, in assay [2], the pEC50 is 4.60. In addition, the “hSTING Tm Shift WT” value in assay [3] was 10.6 °C. The “hSTING Tm Shift HAQ” value in assay [4] amounted to 16.5 °C.
Turning to `Nc1ncnc2c1ncn2[C@@H]1O[C@@H]2CO[P@](=O)(S)O[C@H]3[C@@H](F)[C@H](n4cnc5c(N)ncnc54)O[C@@H]3CO[P@@](=O)(S)O[C@H]2[C@H]1O` [Compound 22a, (2R,3R,3aR,5S,7aR,9R,10R,10aS,12R,14aR)-2,9-bis(6-amino-9H-purin-9-yl)-3-fluoro-10-hydroxy-5,12-dimercaptooctahydro-2H,7H-difuro[3,2-d:3′,2′-j][1,3,7,9]tetraoxa[2,8]diphosphacyclododecine 5,12-dioxide], the “hSTING Tm Shift REF” value in assay [1] was found to be 4.3 °C. The molecule also gave a negative logarithm of the EC50 (pEC50) in assay [2] of 4.00. Besides, in assay [3], the “hSTING Tm Shift WT” value was 6.4 °C. Moreover, in assay [4], the “hSTING Tm Shift HAQ” value amounted to 11.4 °C.
In assay [5], `Nc1nc2c(ncn2[C@@H]2O[C@@H]3CO[P@@](=O)(S)O[C@H]4[C@@H](F)[C@H](n5cnc6c(N)ncnc65)O[C@@H]4CO[P@@](=O)(S)O[C@H]3[C@H]2F)c(=O)[nH]1` [Compound 14, 2-Amino-9-((2R,3R,3aR,5R,7aR,9R,10R,10aR,12R,14aR)-9-(6-amino-9H-purin-9-yl)-3,10-difluoro-5,12-dimercapto-5,12-dioxidooctahydro-2H,7H-difuro [3,2-d:3′,2′-j][1,3,7,9]tetraoxa[2,8]diphosphacyclododecin-2-yl)-1,9-dihydro-6H-purin-6-one] gave a pKd of 7.03. Also, the “hSTING Tm Shift REF” value in assay [1] was 12.5 °C. The molecule also gave a negative-log EC50 (pEC50) in assay [2] of 5.52. Moreover, the “hSTING Tm Shift WT” value in assay [3] is 19.3 °C. For the same molecule, in assay [4], the “hSTING Tm Shift HAQ” value was determined as 34.2 °C.
Molecule `Nc1nc2c(ncn2[C@@H]2O[C@@H]3CO[P@](=O)(S)O[C@H]4[C@@H](F)[C@H](n5cnc6c(N)ncnc65)O[C@@H]4CO[P@@](=O)(S)O[C@H]3[C@H]2F)c(=O)[nH]1` [Compound 14a, 2-amino-9-((2R,3R,3aR,5R,7aR,9R,10R,10aR,12S,14aR)-9-(6-amino-9H-purin-9-yl)-3,10-difluoro-5,12-dimercapto-5,12-dioxidooctahydro-2H,7H-difuro [3,2-d:3′,2′-j][1,3,7,9]tetraoxa[2,8]diphosphacyclododecin-2-yl)-1,9-dihydro-6H-purin-6-one] gave a pKd in assay [5] of 7.01. Moreover, in assay [2], the “activity relative to OH reference compound, in words” value is recorded as “improved activity” and the pEC50 was 4.74.
The molecule `Nc1nc2c(ncn2[C@@H]2O[C@@H]3CO[P@](=O)(S)O[C@H]4[C@@H](F)[C@H](n5cnc6c(N)ncnc65)O[C@@H]4CO[P@@](=O)(S)O[C@H]3[C@H]2O)c(=O)[nH]1` [Compound 24a, 2-amino-9-((2R,3R,3aS,5R,7aR,9R,10R,10aR,12S,14aR)-9-(6-amino-9H-purin-9-yl)-10-fluoro-3-hydroxy-5,12-dimercapto-5,12-dioxidooctahydro-2H,7H-difuro[3,2-d:3′,2′-j][1,3,7,9]tetraoxa[2,8]diphosphacyclododecin-2-yl)-1,9-dihydro-6H-purin-6-one] showed a pKd in assay [5] of 6.16. Also, in assay [1], the “hSTING Tm Shift REF” value amounted to 7.0 °C. Besides, in assay [2], the negative-log EC50 (pEC50) was 4.05. Further, the “hSTING Tm Shift WT” value in assay [3] came to 9.3 °C. Also, the “hSTING Tm Shift HAQ” value in assay [4] is 15.3 °C.
With `O=C(Nc1ncnc2c1ncn2[C@@H]1O[C@@H]2CO[P@@](=O)(S)O[C@H]3[C@@H](F)[C@H](n4cnc5c(NC(=O)c6ccccc6)ncnc54)O[C@@H]3CO[P@@](=O)(S)O[C@H]2[C@H]1F)c1ccccc1` [Compound 27, N,N′-(((2R,3R,3aR,5R,7aR,9R,10R,10aR,12R,14aR)-3,10-difluoro-5,12-dimercapto-5,12-dioxidooctahydro-2H,7H-difuro [3,2-d:3′,2′-j][1,3,7,9]tetraoxa[2,8]diphosphacyclododecine-2,9-diyl)bis(9H-purine-9,6-diyl))dibenzamide], in assay [1], the “hSTING Tm Shift REF” value came to 8.7 °C. In addition, in assay [1] (Table 4 comment, REF allele hSTING), the “binding relative to OH reference compound, in words” value was “improved binding”. In assay [2], this molecule gave a pEC50 of less than 3.82. For the same molecule, in assay [3], the “hSTING Tm Shift WT” value was 8.9 °C. For the same molecule, the “hSTING Tm Shift HAQ” value in assay [4] stood at 10.1 °C.
`Nc1ncnc2c1ncn2[C@@H]1O[C@@H]2COP(=O)(O)O[C@H]3[C@@H](F)[C@H](n4cnc5c(N)ncnc54)O[C@@H]3COP(=O)(O)O[C@H]2[C@H]1F` [3'3'-(2'F-A)(2'F-A), reference compound] showed a pKd in assay [5] of 7.96. For the same molecule, the “hSTING Tm Shift REF” value in assay [1] was determined as 6.4 °C. In addition, in assay [3], the “hSTING Tm Shift WT” value was determined as 12.6 °C. In assay [4], the “hSTING Tm Shift HAQ” value amounted to 20.6 °C.
Take `Nc1ncnc2c1ncn2[C@@H]1O[C@@H]2CO[P@@](=O)(S)O[C@H]3[C@H](F)[C@H](n4cnc5c(N)ncnc54)O[C@@H]3CO[P@@](=O)(S)O[C@H]2[C@@H]1F` [Compound 7, (2R,3S,3aR,5R,7aR,9R,10S,10aR,12R,14aR)-2,9-bis(6-amino-9H-purin-9-yl)-3,10-difluoro-5,12-dimercaptooctahydro-2H,7H-difuro[3,2-d:3′,2′-j][1,3,7,9]tetraoxa[2,8]diphosphacyclododecine 5,12-dioxide]: the “hSTING Tm Shift REF” value in assay [1] amounted to 0.3 °C. Further, the pEC50 in assay [2] was 3.55. Moreover, in assay [3], the “hSTING Tm Shift WT” value was 3.1 °C. Moreover, in assay [4], the “hSTING Tm Shift HAQ” value came out at 11.2 °C.
In assay [5], `Nc1ncnc2c1ncn2[C@@H]1O[C@@H]2CO[P@@](=O)(S)O[C@H]3[C@@H](F)[C@H](n4cnc5c(N)ncnc54)O[C@@H]3CO[P@](=O)(S)O[C@H]2[C@H]1F` [Compound 6a, (2R,3R,3aR,5R,7aR,9R,10R,10aR,12S,14aR)-2,9-bis(6-amino-9H-purin-9-yl)-3,10-difluoro-5,12-dimercaptooctahydro-2H,7H-difuro [3,2-d:3′,2′-j][1,3,7,9]tetraoxa[2,8]diphosphacyclododecine 5,12-dioxide] had a pKd of 7.54. Also, in assay [2], the “activity relative to OH reference compound, in words” value is “improved activity” and the pEC50 is 5.10.

These data come from patent US11040053B2, “Compositions and methods for activating “stimulator of interferon gene”13 dependent signalling” (CHINOOK THERAPEUTICS, INC., priority 2015, dated 2021).
